Assay results reported in PubChem BioAssay AID1918955 (Molecular Pharmacology Branch, DTP, NCI, 2023).

Tested on: NCI/ADR-RES complex spheroid viability
Experiment: Anticancer human tumor NCI/ADR-RES cell line growth inhibition;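 also: spheroids exposed to compounds for 7 days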;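 as to viability, T/C: 100% = DMSO vehicle treated spheroids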
Conditions: for IC50: curve of first compound; for viability, T/C: stronger effect = lower value
Outline: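 Multicellular complex spheroids of tumor cells with human endothelial cells (HUVEC) and mesenchymal stem cells; the LSD1 inhibitor iadademstat was combined with standard-of-care or investigational agents. Top concentration at or near clinical Cmax, half-log dilutions; final DMSO ≤0.25%.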

[1] = second compound 0.1 µM, first compound 0.00316 µM
[2] = second compound 0.1 µM, first compound 0.01 µM
[3] = second compound 0.1 µM, first compound 0.0316 µM
[4] = second compound 0.1 µM, first compound 0.1 µM
[5] = second compound 0.1 µM, first compound 0.316 µM
[6] = second compound 0.1 µM, first compound 1 µM
[7] = second compound 0.316 µM, first compound 0.00316 µM
[8] = second compound 0.316 µM, first compound 0.01 µM
[9] = second compound 0.316 µM, first compound 0.0316 µM
[10] = second compound 0.316 µM, first compound 0.1 µM
[11] = second compound 0.316 µM, first compound 0.316 µM
[12] = second compound 0.316 µM, first compound 1 µM
[13] = second compound 1 µM, first compound 0.00316 µM
[14] = second compound 1 µM, first compound 0.01 µM
[15] = second compound 1 µM, first compound 0.0316 µM
[16] = second compound 1 µM, first compound 0.1 µM
[17] = second compound 1 µM, first compound 0.316 µM
[18] = second compound 1 µM, first compound 1 µM
[19] = second compound 3.16 µM, first compound 0.00316 µM
[20] = second compound 3.16 µM, first compound 0.01 µM
[21] = second compound 3.16 µM, first compound 0.0316 µM
[22] = second compound 3.16 µM, first compound 0.1 µM
[23] = second compound 3.16 µM, first compound 0.316 µM
[24] = second compound 3.16 µM, first compound 1 µM
[25] = second compound 10 µM, first compound 0.00316 µM
[26] = second compound 10 µM, first compound 0.01 µM
[27] = second compound 10 µM, first compound 0.0316 µM
[28] = second compound 10 µM, first compound 0.1 µM
[29] = second compound 10 µM, first compound 0.316 µM
[30] = second compound 10 µM, first compound 1 µM

Q: What does the source list for `Nc1ccn(C2OC(CO)C(O)C2(F)F)c(=O)n1` (stereo not given) + NC1CC1c1ccc(-c2cccc(O)c2)cc1?
A: IC50 (second compound 0.1 µM): < 0.949 nM; IC50 (second compound 0.316 µM): < 0.949 nM; IC50 (second compound 1 µM): < 0.949 nM; IC50 (second compound 3.16 µM): < 0.949 nM; IC50 (second compound 10 µM): < 0.949 nM; viability, T/C (second compound 0.1 µM, first compound 0.000949 µM): 2.63%; viability, T/C (second compound 0.1 µM, first compound 0.003 µM): 2.71%; viability, T/C (second compound 0.1 µM, first compound 0.00949 µM): 2.9%; viability, T/C (second compound 0.1 µM, first compound 0.03 µM): 2.13%; viability, T/C (second compound 0.1 µM, first compound 0.0949 µM): 1.39%; viability, T/C (second compound 0.1 µM, first compound 0.3 µM): 0.69%; viability, T/C (second compound 0.316 µM, first compound 0.000949 µM): 2.24%; viability, T/C (second compound 0.316 µM, first compound 0.003 µM): 2.81%; viability, T/C (second compound 0.316 µM, first compound 0.00949 µM): 2.22%; viability, T/C (second compound 0.316 µM, first compound 0.03 µM): 1.81%; viability, T/C (second compound 0.316 µM, first compound 0.0949 µM): 1.11%; viability, T/C (second compound 0.316 µM, first compound 0.3 µM): 0.86%; viability, T/C (second compound 1 µM, first compound 0.000949 µM): 2.39%; viability, T/C (second compound 1 µM, first compound 0.003 µM): 2.3%; viability, T/C (second compound 1 µM, first compound 0.00949 µM): 2.24%; viability, T/C (second compound 1 µM, first compound 0.03 µM): 2.16%; viability, T/C (second compound 1 µM, first compound 0.0949 µM): 1.32%; viability, T/C (second compound 1 µM, first compound 0.3 µM): 0.73%; viability, T/C (second compound 3.16 µM, first compound 0.000949 µM): 2.52%; viability, T/C (second compound 3.16 µM, first compound 0.003 µM): 2.29%; viability, T/C (second compound 3.16 µM, first compound 0.00949 µM): 2.22%; viability, T/C (second compound 3.16 µM, first compound 0.03 µM): 2.18%; viability, T/C (second compound 3.16 µM, first compound 0.0949 µM): 1.17%; viability, T/C (second compound 3.16 µM, first compound 0.3 µM): 0.8%; viability, T/C (second compound 10 µM, first compound 0.000949 µM): 2.57%; viability, T/C (second compound 10 µM, first compound 0.003 µM): 2.57%; viability, T/C (second compound 10 µM, first compound 0.00949 µM): 3.02%; viability, T/C (second compound 10 µM, first compound 0.03 µM): 2.33%; viability, T/C (second compound 10 µM, first compound 0.0949 µM): 1.52%; viability, T/C (second compound 10 µM, first compound 0.3 µM): 1%

Q: Which IC50 (second compound 0.1 µM) does the source give for `O=C(C=Cn1cnc(-c2cc(C(F)(F)F)cc(C(F)(F)F)c2)n1)NNc1cnccn1` + NC1CC1c1ccc(-c2cccc(O)c2)cc1 here?
A: 4.7 nM

Q: What about the IC50 (second compound 0.316 µM) of the same compound?
A: 4.42 nM

Q: And the IC50 (second compound 1 µM)?
A: 4.18 nM

Q: What about the IC50 (second compound 3.16 µM) of the same compound?
A: 4.79 nM

Q: What about the IC50 (second compound 10 µM) of the same compound?
A: 4.02 nM

Q: And the viability, T/C [1]?
A: 65.4%

Q: What about the viability, T/C [2] of the same compound?
A: 19.6%

Q: And the viability, T/C [3]?
A: 13%

Q: And the viability, T/C [4]?
A: 6.61%

Q: What about the viability, T/C [5] of the same compound?
A: 1.72%

Q: What about the viability, T/C [6] of the same compound?
A: 0.88%

Q: What about the viability, T/C [7] of the same compound?
A: 60.6%

Q: What about the viability, T/C [8] of the same compound?
A: 23.3%

Q: And the viability, T/C [9]?
A: 12.6%

Q: What about the viability, T/C [10] of the same compound?
A: 7.91%

Q: And the viability, T/C [11]?
A: 2.06%

Q: What about the viability, T/C [12] of the same compound?
A: 1.08%

Q: And the viability, T/C [13]?
A: 59.5%

Q: What about the viability, T/C [14] of the same compound?
A: 20.4%

Q: And the viability, T/C [15]?
A: 13.9%

Q: And the viability, T/C [16]?
A: 8.19%

Q: And the viability, T/C [17]?
A: 1.99%

Q: And the viability, T/C [18]?
A: 0.85%

Q: And the viability, T/C [19]?
A: 64.2%

Q: And the viability, T/C [20]?
A: 22.7%

Q: What about the viability, T/C [21] of the same compound?
A: 16.5%

Q: What about the viability, T/C [22] of the same compound?
A: 10.7%

Q: What about the viability, T/C [23] of the same compound?
A: 2.96%

Q: What about the viability, T/C [24] of the same compound?
A: 0.98%

Q: What about the viability, T/C [25] of the same compound?
A: 57.1%

Q: And the viability, T/C [26]?
A: 22.1%

Q: And the viability, T/C [27]?
A: 16%

Q: And the viability, T/C [28]?
A: 10.1%

Q: What about the viability, T/C [29] of the same compound?
A: 5.13%

Q: And the viability, T/C [30]?
A: 2.52%

Q: How did the IC50 (second compound 0.1 µM) turn out when `Nc1ncn(C2CC(O)C(CO)O2)c(=O)n1` (stereo not given) + NC1CCC(NC2CC2c2ccccc2)CC1 was run?
A: 82.7 nM

Q: What about the IC50 (second compound 0.316 µM) of the same compound?
A: 126 nM

Q: And the IC50 (second compound 1 µM)?
A: 76.7 nM

Q: And the IC50 (second compound 3.16 µM)?
A: 59.7 nM

Q: And the IC50 (second compound 10 µM)?
A: 18.5 nM

Q: And the viability, T/C [1]?
A: 109%

Q: What about the viability, T/C [2] of the same compound?
A: 113%

Q: And the viability, T/C [3]?
A: 73.4%

Q: And the viability, T/C [4]?
A: 48.6%

Q: What about the viability, T/C [5] of the same compound?
A: 26.1%

Q: What about the viability, T/C [6] of the same compound?
A: 23.5%

Q: And the viability, T/C [7]?
A: 106%

Q: What about the viability, T/C [8] of the same compound?
A: 91%

Q: And the viability, T/C [9]?
A: 78.3%

Q: What about the viability, T/C [10] of the same compound?
A: 53%

Q: And the viability, T/C [11]?
A: 33.8%

Q: And the viability, T/C [12]?
A: 18.9%

Q: And the viability, T/C [13]?
A: 105%

Q: What about the viability, T/C [14] of the same compound?
A: 91.7%

Q: And the viability, T/C [15]?
A: 74.6%

Q: What about the viability, T/C [16] of the same compound?
A: 41%

Q: And the viability, T/C [17]?
A: 28.2%

Q: What about the viability, T/C [18] of the same compound?
A: 19.4%

Q: And the viability, T/C [19]?
A: 93.3%

Q: What about the viability, T/C [20] of the same compound?
A: 83.3%

Q: What about the viability, T/C [21] of the same compound?
A: 63.1%

Q: And the viability, T/C [22]?
A: 40%

Q: What about the viability, T/C [23] of the same compound?
A: 24.1%

Q: What about the viability, T/C [24] of the same compound?
A: 20.8%

Q: What about the viability, T/C [25] of the same compound?
A: 63%

Q: What about the viability, T/C [26] of the same compound?
A: 57.8%

Q: And the viability, T/C [27]?
A: 43.1%

Q: And the viability, T/C [28]?
A: 27.3%

Q: What about the viability, T/C [29] of the same compound?
A: 17.2%

Q: What about the viability, T/C [30] of the same compound?
A: 15.9%
